The record followed here is BindingDB's records for patent US12017994 (Symberix, 2024).

By IC50 is commonly meant the midpoint of a concentration-inhibition curve. A high value points to weaker potency in that assay.

The target of the assay is Beta-glucuronidase (Escherichia coli (strain K12), UniProt P05804). The assay can be described thus: Biological Assay. As for the experimental part: Successful drug candidate compounds were subjected to numerous biochemical and cellular assays. Purified bacterial β-glucuronidases were challenged with compounds to determine inhibition properties in a standard, robust activity assay, utilizing p-nitrophenyl glucuronide (PNPG) as the enzymatic substrate. Reactions (n=3/inhibitor concentration) were conducted in a 96-well assay, consisting of PNPG substrate (12 concentrations between 25 μM and 5 mM), inhibitor solution (8 concentrations between 0.1 nM and 100 μM), and 5 nM enzyme. […] Purified bovine liver and human β-glucuronidase were dissolved in a reaction mixture containing 1 μM enzyme and 1 mM PNPG as substrate.
Beta-glucuronidase, sequence (P05804 whole entry): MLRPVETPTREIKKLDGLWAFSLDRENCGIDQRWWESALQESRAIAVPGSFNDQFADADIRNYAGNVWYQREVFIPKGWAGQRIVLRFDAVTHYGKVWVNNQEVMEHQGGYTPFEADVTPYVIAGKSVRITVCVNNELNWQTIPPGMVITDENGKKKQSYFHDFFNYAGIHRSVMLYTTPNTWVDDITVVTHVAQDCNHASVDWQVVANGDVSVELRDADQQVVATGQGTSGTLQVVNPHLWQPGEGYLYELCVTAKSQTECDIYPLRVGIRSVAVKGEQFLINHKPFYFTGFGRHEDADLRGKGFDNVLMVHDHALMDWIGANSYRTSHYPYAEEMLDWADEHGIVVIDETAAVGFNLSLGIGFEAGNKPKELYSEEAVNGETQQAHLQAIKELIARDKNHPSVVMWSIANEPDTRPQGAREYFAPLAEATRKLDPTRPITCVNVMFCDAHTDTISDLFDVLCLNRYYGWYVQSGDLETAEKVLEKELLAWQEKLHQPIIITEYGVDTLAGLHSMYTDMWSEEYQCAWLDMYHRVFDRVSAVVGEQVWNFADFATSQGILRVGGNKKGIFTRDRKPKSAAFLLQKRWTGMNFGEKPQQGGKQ

The compound `COc1cccc(NC(=O)N(CCO)Cc2cc3cc(C)cc(C)c3[nH]c2=O)c1` [US12017994, Ref #36'] had an IC50 of 3.71 µM.

`Cc1cc(C)c2[nH]c(=O)c(CN(CCO)C(=O)Nc3ccc(F)cc3C#C[Si](C)(C)C)cc2c1` [US12017994, Ref #44']: inhibition was half-maximal at 19.1 µM (IC50).
